Patent publication US20030199571A1, “(Hetero) Bicyclymethanesulfonylamino-substituted hydroxamic acid derivatives” (priority 1999, published 2003)
pIC50: −log10 of the molar value.

What follows are compounds tested against T1, human recombinant collagenase (Homo sapiens, UniProt P03956) (assay: Collagenase inhibition assay (Cawston and Barrett)). Conditions: acetylated 3H type 1 bovine collagen, 37° C., 18 h.
T1 construct: made in house; host or cells: E. coli
T1 sequence (P03956 100-469): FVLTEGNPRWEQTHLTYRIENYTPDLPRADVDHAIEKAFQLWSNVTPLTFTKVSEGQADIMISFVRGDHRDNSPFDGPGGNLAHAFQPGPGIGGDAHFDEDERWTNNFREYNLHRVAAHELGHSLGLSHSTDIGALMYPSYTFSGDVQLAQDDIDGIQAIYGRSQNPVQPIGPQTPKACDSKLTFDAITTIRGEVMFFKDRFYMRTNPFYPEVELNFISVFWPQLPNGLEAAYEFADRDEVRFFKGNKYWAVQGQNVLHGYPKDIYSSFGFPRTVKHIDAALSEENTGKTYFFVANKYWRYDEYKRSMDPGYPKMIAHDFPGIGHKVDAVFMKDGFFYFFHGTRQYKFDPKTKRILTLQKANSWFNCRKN
Assay type: biochemical
Description: Procedure 2: The ability of test compounds to inhibit collagenase was investigated using the following procedure.
Collagenase Inhibition Assay:
The potency of compounds to act as inhibitors of collagenase was determined by the method of Cawston and Barrett (Anal. Biochem. 99, 340-345, 1979), hereby incorporated by reference, whereby a 1 mM solution of the inhibitor being tested or dilutions thereof, was incubated at 37° C. for 18 h with collagen and human recombinant collagenase, from synovial fibroblasts cloned, expressed and purified from E. coli, (buffered with 150 mM Tris, pH 7.6, containing 15 mM calcium chloride, 0.05% Brij 35, 200 mM sodium chloride and 0.02% sodium azide). The collagen was acetylated ^3H type 1 bovine collagen prepared by the method of Cawston and Murphy (methods in Enzymology 80, 711,1981) The samples were centrifuged to sediment undigested collagen and an aliquot of the radioactive supernatant removed for assay on a scintillation counter as a measure of hydrolysis. The collagenase activity in the presence of 1 mM inhibitor, or dilution thereof, was compared to activity in a control devoid of inhibitor and the results reported as that concentration effecting 50% of the collagenase (IC50).

pIC50, ≤ 5.00:
O=C(NO)[C@@H](Cc1ccccc1)NS(=O)(=O)Cc1ccc2ccccc2c1 [Example 5]
CC(C)(C)C[C@@H](NS(=O)(=O)Cc1ccc2ccccc2c1)C(=O)NO [Example 6]
O=C(NO)[C@@H](CC1CCCCC1)NS(=O)(=O)Cc1ccc2ccccc2c1 [Example 9]
O=C(NO)[C@H](NS(=O)(=O)Cc1ccc2ccccc2c1)c1ccc(O)cc1 [Example 12]
O=C(NO)[C@@H](Cc1csc2ccccc12)NS(=O)(=O)Cc1ccc2ccccc2c1 [Example 14]
O=C(NO)[C@H](NS(=O)(=O)Cc1ccc2sccc2c1)c1ccccc1 [Example 28, (R)-2-(Benzo[b]thiophen-5-ylmethanesulfonylamino)-N-hydroxy-2-phenylacetamide]
O=C(NO)[C@H](NS(=O)(=O)C[C@@H]1CCc2ccccc2C1)c1ccccc1 [Example 29, (R)-2-Phenyl-2-[(R)-1-(1,2,3,4-tetrahydronaphthalen-2-yl)methanesulfonylamino]-N-hydroxyacetamide]
O=C(NO)[C@@H](Cc1c[nH]c2ccccc12)NS(=O)(=O)Cc1ccc2sccc2c1 [Example 31, (R)-2-(Benzo[b]thiophen-5-ylmethanesulfonylamino)-N-hydroxy-3-(1H-indol-3-yl) propionamide.]
O=C(NO)[C@H](NS(=O)(=O)Cc1ccc2sccc2c1)c1ccc(O)cc1 [Example 33]
O=C(NO)[C@@H](CCc1ccccc1)NS(=O)(=O)Cc1ccc2sccc2c1 [Example 38, (R)-2-(Benzo[b]thiophen-5-ylmethanesulfonylamino)-N-hydroxy-4-phenyl-butyramide]
CC(C)(C)C[C@@H](NS(=O)(=O)Cc1ccc2sccc2c1)C(=O)NO [Example 42]
CC(C)(C)[C@@H](NS(=O)(=O)Cc1ccc2sccc2c1)C(=O)NO [Example 43]
CC(C)c1ccc([C@@H](NS(=O)(=O)Cc2ccc3sccc3c2)C(=O)NO)cc1 [Example 56, (R)-2-(Benzo[b]thiophen-5-ylmethanesulfonylamino)-2-(4-isopropylphenyl)-N-hydroxy-acetamide]
O=C(NO)[C@@H](CNS(=O)(=O)Cc1ccccc1)NS(=O)(=O)Cc1ccc2sccc2c1 [Example 69, (R)-2-(Benzo[b]thiophen-5-ylmethanesulfonylamino)-N-hydroxy-3-(phenylmethanesulfonylamino)-propionamide]
